{
  "source": "patent US20260337229A1",
  "about": "(Seattle Children's Hospital (d/b/a Seattle Children's …, priority 2022, published 2026)",
  "key": {"[1]": {"test": "Dose escalation study in DIO rats", "format": "in vivo, male DIO Sprague Dawley rats", "conditions": "300 nmol/kg/d", "source_text": "Male DIO Sprague Dawley rats (n=4) were fed 60% HF diet (formula: D12492; Research Diets, Inc., New Brunswick, NJ, USA; 5.21 kcal/g) for 16 weeks prior to the start of the study. Rats were changed to being singly housed and allowed to acclimate for at least one week prior to the start of this study. Animals averaged 844.15 Z 99.95 g at baseline. Baseline measures of body weight, food intake, and water intake were taken for 6 days before drug administration began. Doses for the dose escalation study included 1, 2, 5, 10, 20, 50, and 100 nmol/kg. Body weight, food and water intake were assessed just prior to the start of the dark cycle. […] In certain embodiments, the greatest anorectic effect achieved with ASK1476 occurred at the 300 nmol/kg/d dose yielding a ~34% reduction in caloric intake while ASK2131 dosed at 2 nmol/kg/d yielded a ~55% reduction in caloric intake."}, "[2]": {"conditions": "in words; cited from earlier work"}},
  "note": "Residues, ends and D or L forms follow the SMILES beside them.",
  "data": [
    {"compound": "CCCCCCCCCCCCCCCC(=O)NCCOCCOCCOCCOCCOCCOCCOCCOCCC(=O)NCCCC[C@H](NC(=O)CNC(=O)[C@@H]1CSSC[C@H](N)C(=O)N[C@@H](Cc2ccc(O)cc2)C(=O)N[C@@H]([C@@H](C)CC)C(=O)N[C@@H](CCC(N)=O)C(=O)N[C@@H](CC(N)=O)C(=O)N1)C(=O)NCC(N)=O", "note": "[ASK1476] (HELM PEPTIDE1{C.Y.I.Q.N.C.G.K.G.[am]}|PEPTIDE2{[CCCCCCCCCCCCCCCC(=O)[*:2]].[O=C(CCOCCOCCOCCOCCOCCOCCOCCOCCN[*:1])[*:2]]}$PEPTIDE1,PEPTIDE2,8:R3-2:R2|PEPTIDE1,PEPTIDE1,1:R3-6:R3$$$V2.0)", "values": [
      {"measurement": "reduction in caloric intake, greatest anorectic effect", "setting": "[1]", "result": "~ 34%"},
      {"measurement": "response in a prior study", "setting": "[2]", "result": "U-shaped response"}
    ]}
  ]
}
